Experimental data taken from patent US20090220534A1, “METHODS FOR IDENTIFYING T-CELL EPITOPES ASSOCIATED WITH IMPAIRED PEPTIDE PROCESSING AND APPLICATIONS OF THE IDENTIFIED EPITOPES” (Leiden University Medical Center, priority 2006, published 2009).

Key:
[1] = test system: TAP-expressing RMA tumor cells; test: Proteasome inhibitor treatment of target cells, cytolysis by CTL (chromium release); type: cell-based, mouse; conditions: RMA cells treated with proteasome inhibitor
Description: (§1) (a) TEIPP-specific CTL were incubated with a panel of TAP-expressing syngeneic tumor cells (see Materials and Methods for descriptions of tumor cell lines). CTL response against TAP-deficient RMA-S in this experiment was 44 ng/ml. (b) Pre-treatment of TAP-expressing T-cell lymphoma (RMA) and B-cell lymphoma (786) cells with IFNγ reduced the reactivity of TEIPP-specific CTL, as measured after 6 h. […] Panels depict means of triplicate wells and one of three experiments is shown. (c-e) TAP-expressing RMA tumor cells were treated with the proteasome inhibitor lactacystin and used as targets for cytolysis by two independent TEIPP-specific CTL (c and d) or control RMA-specific CTL (e). […] One representative experiment of three is shown. […] (f-g) TAP-expressing colon carcinoma MC38 (f) and melanoma B16 (g) were loaded with oligo DNA coding a partial antisense sequence of TAP1. Recognition by TEIPP-specific CTL was measured by IFNγ release. […]
(§2) In order to make an inventory of the deficiencies that can result in TEIPP expression, we assessed the effect of several targeted interventions in the MHC class I processing pathway. […]
(§3) Cytolytic activity of CTL was measured by chromium (^51Cr) release assay, as described before (16). CTL reactivity was also measured by IFNγ release. […] IFNγ content of supernatants was measured by sandwich ELISA technique (at OD 415) as described (47). […]

[2] = test system: RMA, 786 and RMA-S tumor cells; test: IFNγ pre-treatment of tumor cells, recognition by CTL; type: cell-based, mouse
Description: (a) TEIPP-specific CTL were incubated with a panel of TAP-expressing syngeneic tumor cells (see Materials and Methods for descriptions of tumor cell lines). CTL response against TAP-deficient RMA-S in this experiment was 44 ng/ml. (b) Pre-treatment of TAP-expressing T-cell lymphoma (RMA) and B-cell lymphoma (786) cells with IFNγ reduced the reactivity of TEIPP-specific CTL, as measured after 6 h. […] Panels depict means of triplicate wells and one of three experiments is shown. (c-e) TAP-expressing RMA tumor cells were treated with the proteasome inhibitor lactacystin and used as targets for cytolysis by two independent TEIPP-specific CTL (c and d) or control RMA-specific CTL (e). […] One representative experiment of three is shown. […] (f-g) TAP-expressing colon carcinoma MC38 (f) and melanoma B16 (g) were loaded with oligo DNA coding a partial antisense sequence of TAP1. Recognition by TEIPP-specific CTL was measured by IFNγ release. […] (h) Tapasin−/− LPS B cell blasts are recognized by TEIPP-specific CTL in a CD8-dependent manner. Spleens of TAP1−/−, Tapasin−/− or wild type B6 mice were cultured with LPS and used as targets for TEIPP-specific CTL.
Thus far, only cells of hematopoietic origin had been tested against TEIPP-specific CTL. […] Likewise, TEIPP-specific CTL recognized immortalized mouse embryo fibroblasts from TAP1−/− origin (FIG. 2c). […] For instance, RMA, the TAP-expressing counterpart of RMA-S against which these T cells were raised, was also recognized by TEIPP-directed CTL, albeit to lower extent (FIG. 3a). Furthermore, the TEIPP-specific CTL recognized two independent TAP-expressing murine leukemia virus-induced B cell lymphomas (FIG. 3a, lines 771 and 786) and, of the tumor targets of non-hematopoietic origin, HPV type 16-transformed fibroblasts (FIG. 3a, line TC1). All these tumor cells expressed TAP, as illustrated by the fact that they serve as proper targets for control CTL that react against defined, TAP-dependent epitopes 15, 16. We therefore considered the possibility that partial deficiencies in MHC class I antigen processing may account for the recognition of several TAP-expressing murine tumor cells by TEIPP-specific CTL. Such partial defects are commonly found in human cancers 5. We examined this idea by treatment of RMA cells with IFNγ, which is known to enhance MHC class I antigen processing at multiple levels, including the transcription of TAP 17. […] In contrast, recognition by RMA-specific control CTL was increased (data not shown).
as §3

[3] = test system: Db-restricted TEIPP CTL; test: Peptide recognition by Db-restricted TEIPP CTL (IFNγ release); type: cell-based, mouse; conditions: synthetic peptide in titrating amounts
From the text: Kb-restricted (a) and Db-restricted TEIPP-CTL (b) respond to human TAP-deficient T2 cells with stable expression of Kb or Db when exogenously loaded with synthetic peptide libraries. Libraries contained peptides with Kb- or Db-binding motifs, Kb lib: xxxxFxxI/L/M (complexity of approximately 108) and Db lib: xxxxNxxxI/L/M (complexity of approximately 109), where x is random for all amino acids. (c-d) Db molecules from RMA-S cells (1011) were immunoaffinity purified and acid eluted peptides were separated by reversed phase HPLC, applying an increasing acetonitril gradient (OD214 left axis, % acetonitril right axis) (c). HPLC fractions were loaded unto T2.Db cells and TEIPP-specific, Db-restricted CTL were applied to detect the eluted peptide-epitope (d). […] Of note, CTL recognition of HPLC fractions depended on the presence of the relevant class I molecule on target cells (not shown). (e) MCLRMTAVM peptide is processed and presented from the Trh4 gene. The Trh4 gene was cloned from RMA-S cells using gene-specific primers. Trh4 gene in the reversed orientation (Trh4r) served as control plasmid. […]
as §3

[4] = test system: TAP-deficient RMA-S lymphoma cells; test: Peptide immunization and challenge with RMA-S tumor cells; type: in vivo; conditions: with T helper peptide and CpG oligonucleotides, B6 mice
From the text: Groups of B6 mice (n=10) were immunized with synthetic peptides comprising TEIPP Db peptide MCLRMTAVM or control Db peptide SSPVNSLRNVV51 combined with T helper peptide EPLTSLTPRCNTAWNRLKL29 and CpG oligonucleotides 28 and challenged with TAP-deficient RMA-S lymphoma cells. Mice were challenged at day 0 and immunized at days −14, 7 and 14. Immunization with irradiated RMA-S.B7 cells served as positive control.
We therefore immunized groups of mice with the newly identified Db-restricted TEIPP CTL epitope, or a control CTL epitope, in combination with a previously identified tumor-specific CD4+ T-helper epitope (29), and challenged the mice with a tumorigenic dose of RMA-S cells.
B6 mice were immunized with synthetic peptides by s.c. injections of 100 μg of peptide, 50 μg T-helper peptide EPLTSLTPRCNTAWNRLKL 29 and 40 μg Toll-Like Receptor 9 ligand CpG oligonucleotides 28 per mouse in a total volume of 200 μl PBS. Mice were challenged s.c. at the opposite flank with 8×10^5 RMA-S cells in PBS.

[5] = test system: MC38 colon carcinoma cells and B16 melanoma cells; test: TAP1 antisense oligonucleotide treatment of tumor cells, recognition by TEIPP-specific CTL (IFNγ release); type: cell-based, mouse
Description: as §1, §2, §3

Q: `CC(=O)N[C@@H](CSC(=O)[C@]1([C@@H](O)C(C)C)NC(=O)[C@H](C)[C@@H]1O)C(=O)O` [lactacystin] was tested. Which “recognition of treated RMA cells by control CTL” value [1] did it give?
A: decreased

Q: What about the “sensitivity of treated RMA cells to lysis by TEIPP-specific CTL” value [1] of the same molecule?
A: increased their sensitivity to lysis by these CTL

Q: For “IFNγ: interferon gamma used to pre-treat tumor cells”, which “recognition of pretreated cells by TEIPP-specific CTL” value ([2]; RMA cells) is on record?
A: reduced recognition of these cells by TEIPP-specific CTL

Q: And the “recognition of pretreated cells by RMA-specific control CTL” value ([2]; RMA cells, data not shown)?
A: increased

Q: And the “MHC class I surface expression” value ([2]; RMA cells, not shown)?
A: increased three-fold

Q: What about the “recognition of pretreated cells by CTL” value ([2]; RMA-S cells, data not shown) of the same molecule?
A: did not result in an increased recognition

Q: How did the “recognition by Db-restricted TEIPP CTL” value [3] turn out when MCLRMTAVM was run?
A: efficiently recognized by the Db-restricted TEIPP CTL, at much lower concentration than the mimotope peptide

Q: And the “tumor protection after immunization” value [4]?
A: tumor protection in the majority of mice

Q: With “TAP1-specific anti-sense oligonucleotides: 'morpholino' oligonucleotides encoding the antisense sequence of mouse TAP1 (5′-AGAGTCTGGTCCTAGCCTGGGA-3′) (all phosphorodiamidate morpholino (PMO))” as the molecule, how does the “recognition of treated cells by TEIPP-specific CTL” value [5] read?
A: increased recognition by TEIPP-specific CTL

Q: “control peptide: control Db peptide SSPVNSLRNVV used for immunization” was tested. Which “tumor protection after immunization” value [4] did it give?
A: developed progressively growing tumors
